Measured values published in patent US11390609B2, “Rho-associated protein kinase inhibitor, pharmaceutical composition comprising same, and preparation method and use thereof” (BEIJING TIDE PHARMACEUTICAL CO., LTD., priority 2017, dated 2022).

Biological target: ROCK1 (Homo sapiens (Human), UniProt Q13464)
Assay: ROCK1 kinase IC50 assay (biological test method similar to the ROCK2 assay)
Assay type: biochemical
Experimental: The kinase IC50 was determined by a commercialized CISBIO kinase detection kit, HTRF KinEASE-STK S2 kit (62ST2PEC). ROCK2 (01-119) employed in the reaction was purchased from Carna Biosciences.
Before the assay, the following working solutions as needed were formulated with corresponding reagents according to the instruction of the kinase detection kit: 1×kinase buffer, 5×STK-52 substrate working solution (1.5 μM) and 5×ATP working solution (1.5 μM), 5×ROCK2 kinase working solution, 4×Streptavidin-XL665 working solution, and 4×STK-Ab-Cryptate 2 detection solution. Then the assay was performed according to the following procedure.
A solution of a compound at a concentration of 10000 nM was prepared with the 1×kinase buffer containing 2.5% DMSO. Gradient dilution of the solution of the compound was performed with the kinase buffer containing DMSO, so as to obtain solutions of a test compound at 9 different concentrations. In addition to wells of test compounds, a positive well (containing all the reagents except the compound) and a negative well (containing all the reagents except the test compound and kinase) were set. Except for the control wells (positive and negative wells), a solution of a test compound (4 μL) was added to each of the reaction wells, and a solution of 2.5% DMSO was added to the control wells. Then the substrate ([…], 2 μL. 5×STK-S2 substrate working solution) was added to each of the reaction wells. The 5×ROCK2 kinase working solution (2 μL, containing 1.4 ng ROCK2 kinase) was added to each of the reaction wells except for the negative well, the volume of which was made up with the 1×kinase buffer (2 μL). The 5×ATP working solution (2 μL) was added to each of the reaction wells, and the mixtures were incubated at room temperature for 2 hours. After the kinase reaction was complete, the 4×Streptavidin-XL665 working solution was added to each of the reaction wells, the solutions were mixed, followed by immediate addition of the 4×STK-Ab-Cryptate 2 detection solution (5 μL), and the mixtures were incubated at room temperature for 1 hour. The fluorescence signal was read on ENVISION (Perkinelmer) (excitation wavelength: 320 nm, and emission wavelength: 665 nm and 615 nm). The inhibitory rate in each well was calculated based on the fluorescence intensity value: ER (Emission Ratio)=(fluorescence intensity at 665 nm/fluorescence intensity at 615 nm); inhibitory rate=(ERpositive−ERtest compound)/(ERpositive−ERnegative)*100%. Curves were plotted and fitted to obtain the median inhibitory concentration (IC50) of each teat compound with the PRISM 5.0 software.
According to a biological test method similar to the above, the IC50 values of the compounds on ROCK1 were tested.

Sequence of ROCK1 (Q13464 whole entry, species assumed): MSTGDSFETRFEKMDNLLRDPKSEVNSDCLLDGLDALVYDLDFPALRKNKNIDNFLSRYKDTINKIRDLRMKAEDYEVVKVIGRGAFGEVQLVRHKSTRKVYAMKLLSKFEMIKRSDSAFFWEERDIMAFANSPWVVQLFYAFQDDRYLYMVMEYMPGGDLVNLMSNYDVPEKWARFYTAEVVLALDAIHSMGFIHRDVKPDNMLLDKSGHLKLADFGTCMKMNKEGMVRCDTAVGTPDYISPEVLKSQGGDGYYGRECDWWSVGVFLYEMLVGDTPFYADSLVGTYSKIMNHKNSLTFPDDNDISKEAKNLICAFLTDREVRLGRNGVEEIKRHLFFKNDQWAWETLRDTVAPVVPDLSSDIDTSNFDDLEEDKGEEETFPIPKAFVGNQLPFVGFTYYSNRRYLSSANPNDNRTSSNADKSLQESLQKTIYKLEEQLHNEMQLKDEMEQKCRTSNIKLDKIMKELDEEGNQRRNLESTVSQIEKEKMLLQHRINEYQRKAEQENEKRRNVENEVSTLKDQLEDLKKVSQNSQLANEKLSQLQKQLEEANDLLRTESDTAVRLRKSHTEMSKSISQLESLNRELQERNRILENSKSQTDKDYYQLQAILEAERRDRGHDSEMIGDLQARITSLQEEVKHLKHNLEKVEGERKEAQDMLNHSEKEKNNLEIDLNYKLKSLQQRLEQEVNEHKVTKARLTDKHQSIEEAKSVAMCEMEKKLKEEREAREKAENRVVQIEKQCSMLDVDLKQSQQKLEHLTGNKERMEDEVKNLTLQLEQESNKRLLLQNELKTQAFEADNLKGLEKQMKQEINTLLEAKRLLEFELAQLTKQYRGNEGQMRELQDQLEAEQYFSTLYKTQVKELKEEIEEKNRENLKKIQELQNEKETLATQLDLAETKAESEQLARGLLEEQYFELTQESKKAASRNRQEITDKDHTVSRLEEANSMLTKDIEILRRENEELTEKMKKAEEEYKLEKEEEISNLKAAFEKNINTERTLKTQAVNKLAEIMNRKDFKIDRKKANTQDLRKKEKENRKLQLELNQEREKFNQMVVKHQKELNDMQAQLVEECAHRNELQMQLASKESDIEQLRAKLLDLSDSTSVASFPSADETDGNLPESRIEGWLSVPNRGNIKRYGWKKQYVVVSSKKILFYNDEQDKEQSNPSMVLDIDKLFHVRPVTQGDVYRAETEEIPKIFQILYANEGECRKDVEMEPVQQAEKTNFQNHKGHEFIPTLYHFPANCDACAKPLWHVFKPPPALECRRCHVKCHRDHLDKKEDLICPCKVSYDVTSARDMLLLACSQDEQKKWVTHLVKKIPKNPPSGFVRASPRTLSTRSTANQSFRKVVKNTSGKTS

IC50 [µM]	SMILES
3.91	CN(C(=O)c1cc2ccc(-c3nccc(Nc4ccc(-c5cn[nH]c5)cc4)n3)cc2[nH]1)C1CCNC1 (stereo not shown) [TDI01345, 6-(4-((4-(1H-pyrazol-4-yl)phenyl)-amino)-pyrimidin-2-yl)-N-methyl-N-(pyrrolidin-3-yl)-1H-indole-2-carboxamide]
5.58	CN(C(=O)c1cc2ccc(-c3nccc(Nc4ccc5[nH]ncc5c4)n3)cc2[nH]1)c1ccnnc1 [TDI01347, 6-(4-((1H-indazol-5-yl)amino)-pyrimidin-2-yl)-N-methyl-N-(pyridazin-4-yl)-1H-indole-2-carboxamide]
> 10	O=C(Nc1ccncc1Cl)c1cc2ccc(-c3nccc(Nc4ccc(-c5cn[nH]c5)cc4)n3)cc2[nH]1 [TDI01354, 6-(4-((4-(1H-pyrazol-4-yl)phenyl)-amino)-pyrimidin-2-yl)-N-(3-chloropyridin-4-yl)-1H-indole-2-caiboxamide]
> 10	CN(CC(F)(F)F)C(=O)c1cc2ccc(-c3nccc(Nc4ccc(-c5cn[nH]c5)cc4)n3)cc2[nH]1 [TDI01355, 6-(4-((4-(1H-pyrazol-4-yl)phenyl)-amino)-pyrimidin-2-yl)-N-methyl-N-(2,2,2-trifluoroethyl)-1H-indole-2-carboxamide]
> 10	O=C(Nc1ccncc1)c1cc2ccc(-c3nccc(Nc4ccc(-c5cn[nH]c5)cc4)n3)cc2[nH]1 [TDI01363, 6-(4-((4-(1H-pyrazol-4-yl)phenyl)-amino)-pyrimidin-2-yl)-N-(pyridin-4-yl)-1H-indole-2-carboxamide]
> 10	CN(C)C(=O)N1Cc2ccc(-c3nccc(Nc4ccc(-c5cn[nH]c5)cc4)n3)cc2C1 [TDI01366, 5-(4-((4-(1H-pyrazol-4-yl)phenyl)amino)pyrimidin-2-yl)-N,N-dimethylisoindoline-2-carboxamide]
1.49	CC(C)NC(=O)c1cc2ccc(-c3nc(Nc4ccc(-c5cn[nH]c5)cc4)c4sccc4n3)cc2[nH]1 [TDI01370, 6-(4-((4-(1H-pyrazol-4-yl)phenyl)-amino)-thieno[3,2-d]pyrimidin-2-yl)-N-isopropyl-1H-indole-2-carboxamide]
> 10	CNC(=O)c1cc2ccc(-c3nc(Nc4ccc(-c5cn[nH]c5)cc4)c4sccc4n3)cc2[nH]1 [TDI01379, 6-(4-((4-(1H-pyrazol-4-yl)phenyl)-amino)thieno-[3.2-d]-pyrimidin-2-yl)-N-methyl-1H-indole-2-carboxamide]
4.11	CN(C(=O)c1cc2ccc(-c3nccc(Nc4ccc(-c5cn[nH]c5)cc4)n3)cc2[nH]1)C1CCOCC1 [TDI01381, 6-(4-((4-(1H-pyrazol-4-yl)phenyl)amino)pyrimidin-2-yl)-N-methyl-N-(tetrahydro-2H-pyran-4-yl)-1H-indole-2-carboxamide]
> 10	O=C(Nc1ccncc1)c1cc2ccc(-c3nccc(Nc4ccc(-c5cn[nH]c5)cc4)n3)cc2s1 [TDI01393]
6	O=C(Nc1cccnc1)c1cc2ccc(-c3nccc(Nc4ccc(-c5cn[nH]c5)cc4)n3)cc2[nH]1 [TDI01397, 6-(4-((4-(1H-pyrazol-4-yl)phenyl)-amino)-pyrimidin-2-yl)-N-(pyridin-3-yl)-1H-indole-2-carboxamide]
> 10	N#CC1CN(C(=O)c2cc3ccc(-c4nccc(Nc5ccc(-c6cn[nH]c6)cc5)n4)cc3[nH]2)C1 [TDI01398, 1-(6-(4-((4-(1H-pyrazol-4-yl)phenyl)-amino)-pyrimidin-2-yl)-1H-indole-2-carbonyl)-azetidine-3-carbonitrile]
> 10	CCNC(=O)N1Cc2ccc(-c3nccc(Nc4ccc(-c5cn[nH]c5)cc4)n3)cc2C1 [TDI01411, 5-(4-((4-(1H-pyrazol-4-yl)phenyl)amino)pyrimidin-2-yl)-N-ethylisoindoline-2-carboxamide]
3.71	CCN(CCO)C(=O)c1cc2ccc(-c3nccc(Nc4ccc(-c5cn[nH]c5)cc4)n3)cc2[nH]1 [TDI01415, 6-(4-((4-(1H-pyrazol-4-yl)phenyl)-amino)-pyrimidin-2-yl)-N-ethyl-N-(2-hydroxyethyl)-1H-indole-2-carboxamide]
5.38	CN(C(=O)c1cc2ccc(-c3nccc(Nc4ccc(-c5cn[nH]c5)cc4)n3)cc2[nH]1)C1CC(O)C1 (stereo not shown) [TDI01418, 6-(4-((4-(1H-pyrazol-4-yl)phenyl)amino)pyrimidin-2-yl)-N-(3-hydroxycyclobutyl)-N-methyl-1H-indole-2-carboxamide]
9.29	CN(C(=O)c1cc2ccc(-c3nccc(Nc4ccc(-c5cn[nH]c5)cc4)n3)cc2[nH]1)C1CCC1 [TDI01420, 6-(4-((4-(1H-pyrazol-4-yl)phenyl)amino)pyrimidin-2-yl)-N-cyclobutyl-N-methyl-1H-indole-2-carboxamide]
5.94	CN(C(=O)c1cc2ccc(-c3nccc(Nc4ccc(-c5cn[nH]c5)cc4)n3)cc2[nH]1)c1ccncc1 [TDI01421, 6-(4-((4-(1H-pyrazol-4-yl)phenyl)-amino)-pyrimidin-2-yl)-N-methyl-N-(pyridin-4-yl)-1H-indole-2-carboxamide]
> 10	O=C(NC1CCOC1)c1cc2ccc(-c3nc(Nc4ccc(-c5cn[nH]c5)cc4)c4sccc4n3)cc2[nH]1 (stereo not shown) [TDI01423, 6-(4-((4-(1H-pyrazol-4-yl)phenyl)-amino)-thieno-[3,2-d]-pyrimidin-2-yl)-N-(tetrahydro-furan-3-yl)-1H-indole-2-carboxamide]
4.98	O=C(NC1CCC1)c1cc2ccc(-c3nc(Nc4ccc(-c5cn[nH]c5)cc4)c4sccc4n3)cc2[nH]1 [TDI01424, 6-(4-((4-(1H-pyrazol-4-yl)phenyl)-amino)-thieno-[3,2-d]-pyrimidin-2-yl)-N-cyclobutyl-1H-indole-2-carboxamide]
2.94	O=C(c1cc2ccc(-c3nccc(Nc4ccc(-c5cn[nH]c5)cc4)n3)cc2[nH]1)N1CCC2(CCNCC2)CC1 [TDI01425, (6-(4-((4-(1H-pyrazol-4-yl)phenyl)-amino)-pyrimidin-2-yl)-1H-indol-2-yl)(3,9-diazaspiro[5.5]undecan-3-yl)methanone]
> 10	CN(CC(F)(F)F)C(=O)c1cc2ccc(-c3ncc(F)c(Nc4ccc(-c5cn[nH]c5)cc4)n3)cc2[nH]1 [TDI01426, 6-(4-((4-(1H-pyrazol-4-yl)phenyl)amino)-5-fluoropyrimidin-2-yl)-N-methyl-N-(2,2,2-trifluoroethyl)-1H-indole-2-carboxamide]
> 10	CN(CC#N)C(=O)c1cc2ccc(-c3nccc(Nc4ccc(-c5cn[nH]c5)cc4)n3)cc2[nH]1 [TDI01430, 6-(4-((4-(1H-pyrazol-4-yl)phenyl)amino)pyrimidin-2-yl)-N-(cyanomethyl)-N-methyl-1H-indole-2-carboxamide]
1.97	O=C(c1cc2ccc(-c3nccc(Nc4ccc(-c5cn[nH]c5)cc4)n3)cc2[nH]1)N1CC(C(F)(F)F)C1 [TDI01433, (6-(4-((4-(1H-pyrazol-4-yl)phenyl)amino)pyrimidin-2-yl)-1H-indol-2-yl)(3-(trifluoromethyl)azetidin-1-yl)methanone]
> 10	O=C(c1cc2ccc(-c3nccc(Nc4ccc(-c5cn[nH]c5)cc4)n3)cc2[nH]1)N1CC(F)(F)C1 [TDI01434, (6-(4-((4-(1H-pyrazol-4-yl)phenyl)ami-no)pyrimidin-2-yl)-1H-indol-2-yl)(3,3-difluoroazetidin-1-yl)methanone]
1.23	O=C(c1cc2ccc(-c3nccc(Nc4ccc(-c5cn[nH]c5)cc4)n3)cc2[nH]1)N1CC(C(F)F)C1 [TDI01435, (6-(4-((4-(1H-pyrazol-4-yl)phenyl)amino)pyrimidin-2-yl)-1H-indol-2-yl)(3-(difluoromethyl)azetidin-1-yl)methanone]
